Reference: ChEMBL document CHEMBL1201862, “PubChem BioAssay data set” (2004)
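These data come from cells grown in 96-well plates and exposed to compound for 48 hours at five concentrations. Abbreviation: GI50, concentration required for 50% inhibition of growth.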 Activity calls are given as the source filed them. No stated cut-off is given here; in the data, active = GI50 up to about 1.1 µM and inactive = higher.

Assays:
Experiment in all cases: NCI anticancer screen, dose series, 48 h
NCI-H522 = test system: NCI-H522
NCI-H226 = test system: NCI-H226
786-0 = test system: 786-0
A498 = test system: A498
U-251 = test system: U-251
SW-620 = test system: SW-620
ACHN = test system: ACHN
M14 = test system: M14
K562 = test system: K562
KM12 = test system: KM12
UACC-62 = test system: UACC-62
SNB-19 = test system: SNB-19
OVCAR-3 = test system: OVCAR-3
IGROV-1 = test system: IGROV-1
Malme-3M = test system: Malme-3M
OVCAR-4 = test system: OVCAR-4
RPMI-8226 = test system: RPMI-8226

Measured: GI50

CN(C)c1c([O-])c(=[N+](C)C)c1=O
inactive: NCI-H522 > 100 µM | NCI-H226 > 100 µM | 786-0 > 100 µM | A498 > 100 µM | U-251 > 100 µM | SW-620 > 100 µM | ACHN > 100 µM | M14 > 100 µM | K562 > 100 µM | KM12 > 100 µM | UACC-62 > 100 µM | SNB-19 > 100 µM | OVCAR-3 > 100 µM | IGROV-1 > 100 µM

O=C1CC2C(=O)N(Cc3ccccc3)C1C=C2S(=O)(=O)c1ccccc1 (stereo not drawn)
inactive: Malme-3M > 100 µM | NCI-H522 > 100 µM | NCI-H226 > 100 µM | 786-0 > 100 µM | OVCAR-4 > 100 µM | A498 > 100 µM | U-251 > 100 µM | SW-620 > 100 µM | ACHN > 100 µM | M14 > 100 µM | K562 > 100 µM | KM12 > 100 µM | UACC-62 > 100 µM | SNB-19 > 100 µM | OVCAR-3 > 100 µM | IGROV-1 > 100 µM

CC#Cc1c(C#CC)c(OC)c2c(c1OC)C(=O)c1ccccc1C2=O
inactive: Malme-3M > 100 µM | NCI-H522 3.15 µM | 786-0 23.3 µM | OVCAR-4 > 100 µM | A498 33.1 µM | U-251 21.4 µM | SW-620 > 100 µM | ACHN 14.3 µM | M14 33.6 µM | K562 > 100 µM | KM12 > 100 µM | UACC-62 23.9 µM | SNB-19 20.3 µM | RPMI-8226 39.2 µM | OVCAR-3 > 100 µM | IGROV-1 73.6 µM

NNC(=S)N/N=C(/C(=O)Nc1cc(Cl)ccc1Cl)C1C(=O)Nc2ccccc2[S+]1[O-] (stereo not drawn)
inactive: Malme-3M > 100 µM | NCI-H522 68.9 µM | NCI-H226 > 100 µM | 786-0 > 100 µM | OVCAR-4 > 100 µM | A498 > 100 µM | U-251 > 100 µM | SW-620 > 100 µM | ACHN > 100 µM | M14 > 100 µM | K562 > 100 µM | KM12 > 100 µM | UACC-62 > 100 µM | SNB-19 > 100 µM | OVCAR-3 > 100 µM | IGROV-1 > 100 µM

O=C(NCCCN1CCN(CCCNC(=O)c2cccc3ccccc23)CC1)c1cccc2ccccc12
inactive: Malme-3M 57.4 µM | NCI-H226 > 100 µM | 786-0 44.1 µM | OVCAR-4 > 100 µM | A498 > 100 µM | U-251 97.5 µM | SW-620 > 100 µM | ACHN > 100 µM | M14 > 100 µM | K562 41.4 µM | KM12 > 100 µM | UACC-62 > 100 µM | SNB-19 76.7 µM | RPMI-8226 > 100 µM | OVCAR-3 79.3 µM | IGROV-1 78.3 µM

N#CCc1nnc(N)o1
inactive: Malme-3M > 100 µM | NCI-H522 > 100 µM | NCI-H226 > 100 µM | 786-0 > 100 µM | U-251 > 100 µM | SW-620 > 100 µM | ACHN > 100 µM | M14 > 100 µM | K562 > 100 µM | KM12 > 100 µM | UACC-62 > 100 µM | SNB-19 > 100 µM | RPMI-8226 > 100 µM | OVCAR-3 > 100 µM | IGROV-1 > 100 µM

CC(C)(C)OC1=C(OC(C)(C)C)C(O)(c2ccc(Cl)cc2)C1=O (stereo not drawn)
inactive: Malme-3M > 100 µM | 786-0 > 100 µM | OVCAR-4 > 100 µM | A498 > 100 µM | U-251 > 100 µM | SW-620 > 100 µM | ACHN > 100 µM | M14 > 100 µM | K562 > 100 µM | KM12 > 100 µM | UACC-62 > 100 µM | SNB-19 > 100 µM | RPMI-8226 > 100 µM | OVCAR-3 > 100 µM | IGROV-1 > 100 µM
